# Patent US6444681B1, “Methods and compositions for treating Raynaud's Phenomenon and scleroderma” (The Ohio State University Research Foundation, priority 2000, dated 2002)
# Read-outs that look alike come from different tables or passages of the source.
# Tests used:
# [1] = biological target: T1, α-2B (Homo sapiens, UniProt P18089); details: cited from earlier work
# T1 sequence (P18089 1-450): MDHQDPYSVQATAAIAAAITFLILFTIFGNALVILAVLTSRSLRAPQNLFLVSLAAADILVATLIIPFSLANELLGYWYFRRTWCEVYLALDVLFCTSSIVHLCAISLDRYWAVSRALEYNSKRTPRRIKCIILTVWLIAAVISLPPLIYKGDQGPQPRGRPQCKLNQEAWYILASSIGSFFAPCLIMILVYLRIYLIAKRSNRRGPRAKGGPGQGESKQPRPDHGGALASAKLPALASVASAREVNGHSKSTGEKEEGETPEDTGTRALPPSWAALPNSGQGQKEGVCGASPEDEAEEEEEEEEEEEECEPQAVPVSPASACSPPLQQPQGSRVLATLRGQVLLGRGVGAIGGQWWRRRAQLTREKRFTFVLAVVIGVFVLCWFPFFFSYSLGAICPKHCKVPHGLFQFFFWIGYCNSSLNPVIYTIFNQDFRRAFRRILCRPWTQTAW
# [2] = system: small dermal arteries/arterioles from healthy controls and SSc subjects; test: α2C-AR blockade of UK 14,304 vasoconstriction in human dermal arteries from control and SSc subjects; format: cell-based; details: for Kb: Homo sapiens, topical, versus UK 14,304, read-out: calculated dissociation constant, −log Kb (converted)
# Method: Arterioles were dissected from the deep dermal plexus of the biopsies and any side branches tied. […] The arterioles were cannulated with glass micropipettes and placed in a microvessel chamber as previously describe. The arterioles were maintained in no-flow state at a constant transmural pressure (PTM)of 40 mmHg. The chamber was superfused with buffer solution (37° C., pH 7.4, gassed with 16% O2-5% CO2-balance N2) and placed on stage of an inverted microscope for continuous monitoring of internal diameter using a video camera and video dimension analyzer.
# In order to determine the influence of α2C-AR blockade, paired arteries from each subject were used. […] In the other artery of each pair, increasing concentrations of the α2C-AR antagonist (MK 912) was administered before the response to UK 14,304 was determined.
structure (smiles),measurement,setting,value
CN1CCC2(CCN3CCc4c(oc5ccccc45)C3C2)N(C)C1=O (stereo not drawn) [MK 912],Kd,[1],0.33 nM
same,Kb,[2]; SSc arteries,0.00123 nM
same,Kb,[2]; control arteries,0.468 nM
same,effect on vasoconstrictor response to α2-AR stimulation,"[2]; SSc arteries, extremely low concentrations (e.g. 10^−11M)",reduced the vasoconstrictor response
same,"concentration needed to inhibit responses to UK 14,304",[2]; control arteries,10^−9 M
same,concentration needed in control arteries relative to SSc arteries,[2]; control versus SSc arteries,100 fold
